This note sets out measurements from patent US10865191B2, “Heterocyclic compounds useful as modulators of TNF alpha” (BRISTOL-MYERS SQUIBB COMPANY, priority 2015, dated 2020).

Where only a bound is given, the exact number is not on record here.

For the first assay, the target named is TNFα (Homo sapiens, UniProt P01375). In words: TNF induced HEK-Blue assay (NF-kB-driven secreted alkaline phosphatase reporter). The following applies: TNF induced HEK-Blue assay IC50 value, TNFα 0.5 ng/mL, HEK-Blue-CD40L cells, 18 h. Format: cell-based. In a few lines: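 HEK-Blue-CD40L cells (NF-kB-driven SEAP reporter), 20,000/well, added after 30 min pre-incubation of compound (0.004–25 μM final) with TNFα 0.5 ng/mL final at 37 °C; 18 h incubation. SEAP read with QUANTI-Blue at 620 nm; IC50 from 4-parameter logistic fit, normalized to unstimulated and stimulated DMSO controls.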
Sequence of TNFα (P01375 77-233 limits assumed): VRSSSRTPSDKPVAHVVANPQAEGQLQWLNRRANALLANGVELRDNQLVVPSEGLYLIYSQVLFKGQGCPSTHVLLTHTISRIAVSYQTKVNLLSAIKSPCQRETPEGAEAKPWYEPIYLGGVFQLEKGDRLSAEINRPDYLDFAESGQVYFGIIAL
By IC50 is commonly meant the concentration at which inhibition is half-maximal. Regarding `CC(Nc1c(Cl)cnc2cc(F)c(-c3cnc(C(C)(C)O)nc3)cc12)c1ccccc1F` (centres unmarked) [Example 248, 2-(5-(3-chloro-7-fluoro-4-((1-(2-fluorophenyl)ethyl)amino)quinolin-6-yl)pyrimidin-2-yl)propan-2-ol], the concentration for half-maximal inhibition (IC50) lay within 10 to 25 µM.
In turn, `CC(Nc1c(Cl)cnc2cc(F)c(-c3cnc(C(C)(C)O)nc3)cc12)c1ccccc1F` (centres unmarked) [Example 249, 2-(5-(3-chloro-7-fluoro-4-((1-(2-fluorophenyl)ethyl)amino)quinolin-6-yl)pyrimidin-2-yl)propan-2-ol] returned a half-inhibitory concentration (IC50) of 1 to 10 µM.
In turn, `CC(Nc1c(Cl)cnc2cc(F)c(-c3cnc(C(C)(C)O)nc3)cc12)c1ccccc1F` (centres unmarked) [Example 250, 2-(5-(3-chloro-7-fluoro-4-((1-(2-fluorophenyl)ethyl)amino)quinolin-6-yl)pyrimidin-2-yl)propan-2-ol] gave a concentration for half-maximal inhibition (IC50) of 1 to 10 µM.
The same measure, in the same setting: to `CC(Nc1c(Cl)cnc2cc(F)c(-c3cnc(C(C)(C)O)nc3)cc12)c1ccccc1F` (centres unmarked) [Example 252, 2-(5-(3-chloro-7-fluoro-4-((1-(2-fluorophenyl)ethyl)amino)quinolin-6-yl)pyrimidin-2-yl)propan-2-ol] belongs below 1 µM; to `C[C@@H](Nc1c(Cl)cnc2ccc(-c3cnc(N4CCN(CC(=O)O)CC4)nc3)cc12)c1ccccc1F` [Example 285, (R)-2-(4-(5-(3-chloro-4-((1-(2-fluorophenyl)ethyl)amino)quinolin-6-yl)pyrimidin-2-yl)piperazin-1-yl)acetic acid], below 1 µM.

Staying with this assay, now noted: TNFα 0.5 ng/mL, HEK-Blue-CD40L cells, 18 h; read-out: TNF induced HEK-Blue assay IC50 value.
Consider `Cc1cnc2ccc(-c3cnc(C(C)(C)O)nc3)cc2c1N[C@H](C)c1ccccc1F` [Example 240, (R)-2-(5-(4-((1-(2-fluorophenyl)ethyl)amino)-3-methylquinolin-6-yl)pyrimidin-2-yl)propan-2-ol], for which the concentration for half-maximal inhibition (IC50) was below 1 µM.
Same read-out and setting: the figure for `CC(Nc1c(Cl)cnc2cc(F)c(-c3cnc(C(C)(O)CO)nc3)cc12)c1ccccc1F` (centres unmarked) [Example 254, 2-(5-(3-chloro-7-fluoro-4-((1-(2-fluorophenyl)ethyl)amino)quinolin-6-yl)pyrimidin-2-yl)propane-1,2-diol] is below 1 µM; for `CC(Nc1c(Cl)cnc2cc(F)c(-c3cnc(C#N)nc3)cc12)c1ccccc1F` (centres unmarked) [Example 255, 5-(3-chloro-7-fluoro-4-((1-(2-fluorophenyl)ethyl)amino)quinolin-6-yl)pyrimidine-2-carbonitrile] it is 1 to 10 µM.
On to `CC(Nc1c(Cl)cnc2cc(F)c(-c3ccc(C(O)CO)cc3)cc12)c1ccccc1F` (centres unmarked) [Example 256, 1-(4-(3-chloro-7-fluoro-4-((1-(2-fluorophenyl)ethyl)amino)quinolin-6-yl)phenyl)ethane-1,2-diol], for which the 50% inhibitory concentration (IC50) was below 1 µM.
On the same count and under the same terms, to `CC(Nc1c(Cl)cnc2cc(F)c(-c3cnc(C(C)(O)CO)nc3)cc12)c1ccccc1F` (centres unmarked) [Example 257, 2-(5-(3-chloro-7-fluoro-4-((1-(2-fluorophenyl)ethyl)amino)quinolin-6-yl)pyrimidin-2-yl)propane-1,2-diol] belongs below 1 µM.
Same read-out and setting: the figure for `CC(Nc1c(Cl)cnc2cc(F)c(-c3ccc(C(C)(C)O)c(F)c3)cc12)c1ccccc1F` (centres unmarked) [Example 258, 2-(4-(3-chloro-7-fluoro-4-((1-(2-fluorophenyl)ethyl)amino)quinolin-6-yl)-2-fluorophenyl)propan-2-ol] is 1 to 10 µM; for `CC(Nc1c(Cl)cnc2cc(F)c(-c3cnc(C(C)(O)CO)nc3)cc12)c1ccccc1F` (centres unmarked) [Example 259, 2-(5-(3-chloro-7-fluoro-4-((1-(2-fluorophenyl)ethyl)amino)quinolin-6-yl)pyrimidin-2-yl)propane-1,2-diol] it is 10 to 25 µM.
Regarding `CC(Nc1c(Cl)cnc2cc(F)c(-c3ccc(C(O)C4CC4)cc3)cc12)c1ccccc1F` (centres unmarked) [Example 260, (4-(3-chloro-7-fluoro-4-((1-(2-fluorophenyl)ethyl)amino)quinolin-6-yl)phenyl)(cyclopropyl)methanol], the half-inhibitory concentration (IC50) is below 1 µM.
On the same count and under the same terms, the figure for `CC(Nc1c(Cl)cnc2cc(F)c(-c3ccc(C(O)C4CC4)cc3)cc12)c1ccccc1F` (centres unmarked) [Example 261, (4-(3-chloro-7-fluoro-4-((1-(2-fluorophenyl)ethyl)amino)quinolin-6-yl)phenyl)(cyclopropyl) methanol] is below 1 µM; for `CC(Nc1c(Cl)cnc2cc(F)c(-c3ccc(C(O)C4CC4)cc3)cc12)c1ccccc1F` (centres unmarked) [Example 262, (4-(3-chloro-7-fluoro-4-((1-(2-fluorophenyl)ethyl)amino)quinolin-6-yl)phenyl)(cyclopropyl)methanol] it is 1 to 10 µM.
On the same count and under the same terms, the figure for `CC(Nc1c(Cl)cnc2cc(F)c(-c3ccc(C(O)C4CC4)cc3)cc12)c1ccccc1F` (centres unmarked) [Example 263, (4-(3-chloro-7-fluoro-4-((1-(2-fluorophenyl)ethyl)amino)quinolin-6-yl)phenyl)(cyclopropyl)methanol] is 1 to 10 µM; for `CC(Nc1c(Cl)cnc2cc(F)c(-c3ccc(C4(CO)CC4)cc3)cc12)c1ccccc1F` (centres unmarked) [Example 265, (1-(4-(3-chloro-7-fluoro-4-((1-(2-fluorophenyl)ethyl)amino)quinolin-6-yl)phenyl)cyclopropyl) methanol] it is below 1 µM; for `CC(Nc1c(Cl)cnc2cc(F)c(-c3cc(F)c(C(C)(C)O)c(F)c3)cc12)c1ccccc1F` (centres unmarked) [Example 268, 2-(4-(3-chloro-7-fluoro-4-((1-(2-fluorophenyl)ethyl)amino)quinolin-6-yl)-2,6-difluorophenyl) propan-2-ol] it is below 1 µM.
Same read-out and setting: the figure for `CC(C)(O)c1ncc(-c2cc3c(N[C@@H](c4ccccc4F)C(F)F)c(Cl)cnc3cc2F)cn1` [Example 269, (S)-2-(5-(3-chloro-4-((2,2-difluoro-1-(2-fluorophenyl)ethyl)amino)-7-fluoroquinolin-6-yl)pyrimidin-2-yl)propan-2-ol] is below 1 µM; for `CC(C)(O)c1ccc(-c2cc3c(N[C@@H](c4ccccc4F)C(F)F)c(Cl)cnc3cc2F)cn1` [Example 270, (S)-2-(5-(3-chloro-4-((2,2-difluoro-1-(2-fluorophenyl)ethyl)amino)-7-fluoroquinolin-6-yl)pyridin-2-yl)propan-2-ol] it is below 1 µM.
Regarding `CC(Nc1c(Cl)cnc2cc(F)c(-c3ccc(C(O)CN4CCOCC4)cc3)cc12)c1ccccc1F` (centres unmarked) [Example 272, 1-(4-(3-chloro-7-fluoro-4-((1-(2-fluorophenyl)ethyl)amino)quinolin-6-yl)phenyl)-2-morpholinoethan-1-ol], the IC50 was below 1 µM.
The same measure, in the same setting: the figure for `CC(Nc1c(Cl)cnc2cc(F)c(-c3cnc(C(O)CN4CCOCC4)cn3)cc12)c1ccccc1F` (centres unmarked) [Example 273, 1-(5-(3-chloro-7-fluoro-4-((1-(2-fluorophenyl)ethyl)amino)quinolin-6-yl)pyrazin-2-yl)-2-morpholinoethan-1-ol] is below 1 µM; for `CC(Nc1c(Cl)cnc2cc(F)c(-c3cnc(C(O)CN4CCOCC4)cn3)cc12)c1ccccc1F` (centres unmarked) [Example 274, 1-(5-(3-chloro-7-fluoro-4-((1-(2-fluorophenyl)ethyl)amino)quinolin-6-yl)pyrazin-2-yl)-2-morpholinoethan-1-ol] it is 1 to 10 µM; for `CC(Nc1c(Cl)cnc2cc(F)c(-c3cnc(C(O)CN4CCOCC4)cn3)cc12)c1ccccc1F` (centres unmarked) [Example 275, 1-(5-(3-chloro-7-fluoro-4-((1-(2-fluorophenyl)ethyl)amino)quinolin-6-yl)pyrazin-2-yl)-2-morpholinoethan-1-ol] it is below 1 µM.
Same read-out and setting: to `CC(Nc1c(Cl)cnc2cc(F)c(-c3cnc(C(O)CN4CCOCC4)cn3)cc12)c1ccccc1F` (centres unmarked) [Example 276, 1-(5-(3-chloro-7-fluoro-4-((1-(2-fluorophenyl)ethyl)amino)quinolin-6-yl)pyrazin-2-yl)-2-morpholinoethan-1-ol] belongs 1 to 10 µM; to `CC(Nc1c(Cl)cnc2cc(F)c(-c3ccc(C(O)CN4CCOCC4)cc3)cc12)c1ccccc1F` (centres unmarked) [Example 277, 1-(4-(3-chloro-7-fluoro-4-((1-(2-fluorophenyl)ethyl)amino)quinolin-6-yl)phenyl)-2-morpholinoethan-1-ol], below 1 µM; to `CC(C)(O)c1ncc(-c2cc3c(NC4(c5ccccc5F)CC4)c(Cl)cnc3cc2F)cn1` [Example 278, 2-(5-(3-chloro-7-fluoro-4-((1-(2-fluorophenyl)cyclopropyl)amino)quinolin-6-yl)pyrimidin-2-yl)propan-2-ol], below 1 µM.
Consider `CC(C)(O)c1ccc(-c2cc3c(NC4(c5ccccc5F)CC4)c(Cl)cnc3cc2F)cc1` [Example 279, 2-(4-(3-chloro-7-fluoro-4-((1-(2-fluorophenyl)cyclopropyl)amino)quinolin-6-yl)phenyl) propan-2-ol], for which the 50% inhibitory concentration (IC50) lay in the range of 1 to 10 µM.
Regarding `C[C@@H](Nc1c(Cl)cnc2cc(F)c(-c3ccc(N4CCN(CC(=O)O)CC4)cc3)cc12)c1ccccc1F` [Example 280, (R)-2-(4-(4-(3-chloro-7-fluoro-4-((1-(2-fluorophenyl)ethyl)amino)quinolin-6-yl)phenyl)piperazin-1-yl)acetic acid], the concentration for half-maximal inhibition (IC50) was below 1 µM.
The same measure, in the same setting: the figure for `CC(Nc1c(Cl)cnc2cc(F)c(-c3cnc(N4CCC(O)C4)cn3)cc12)c1ccccc1F` (centres unmarked) [Example 284, 1-(5-(3-chloro-7-fluoro-4-((1-(2-fluorophenyl)ethyl)amino)quinolin-6-yl)pyrazin-2-yl)pyrrolidin-3-ol] is 1 to 10 µM; for `CC(Nc1c(Cl)cnc2cc(F)c(-c3ccc(C(O)CN4CCOCC4)cc3)cc12)c1ccccc1F` (centres unmarked) [Example 286, 1-(4-(3-chloro-7-fluoro-4-((1-(2-fluorophenyl)ethyl)amino)quinolin-6-yl)phenyl)-2-morpholinoethan-1-ol] it is below 1 µM; for `CC(Nc1c(Cl)cnc2cc(F)c(-c3ccc(C(O)CN4CCOCC4)cc3)cc12)c1ccccc1F` (centres unmarked) [Example 288, 1-(4-(3-chloro-7-fluoro-4-((1-(2-fluorophenyl)ethyl)amino)quinolin-6-yl)phenyl)-2-morpholinoethan-1-ol] it is 1 to 10 µM.
